Results taken from US20240174669A1, “CRYSTALLINE FORMS OF A PARP1 INHIBITOR” (XinThera, Inc., priority 2022, published 2024).
In brackets after ≈: the same amount, converted by molar mass.

Experiment: Solubility in 0.5% MC and 0.5% MC pH 3 citrate buffer
Assay type: physicochemical
Conditions: for solubility: thermodynamic from solid
Procedure: Solubility of freebase Form II was first measured in 0.5% MC (400 cPs) and 0.5% MC (400 cPs) pH 3 citrate buffer. About 5 mg of Form II (Lot#1) was stirred in 1 mL of media at RT for ˜2 hours. The suspension was filtered, with filtrates analyzed by HPLC and remaining solids tested by XRPD. […] Therefore, 0.5% MC pH 3 buffer was selected for suspension formulation stability study.

[1] = 0.5% MC pH 3 buffer (100 mM citrate), RT, ~2 hours

- solubility (0.5% MC (400 cPs) pH 3 citrate buffer, pH 3, aqueous with cosolvent or surfactant or cyclodextrin, 0.5% MC pH 3 buffer (100 mM citrate), initial pH 3.0, RT, ~2 hours): 4500 µg/mL (≈ 10800 µM)
- solubility (0.5% MC (400 cPs), aqueous with cosolvent or surfactant or cyclodextrin, 0.5% MC, RT, ~2 hours): < 10 µg/mL
- solubility (0.5% MC (400 cPs), aqueous with cosolvent or surfactant or cyclodextrin, RT, ~2 hours): 6 µg/mL (≈ 14.3 µM)
- Filtrate Purity 254 nm [1]: 99.25%
- XRPD of remaining solids [1]: Unchanged
- form change (XRPD) (both media: 0.5% MC and 0.5% MC pH 3 citrate buffer): No form change was observed
Compound: CNC(=O)c1ccc(N2CCN(Cc3cnc4cc(C5CC5)c(=O)[nH]c4c3)CC2)cn1 [Freebase Form II, 5-(4-((7-cyclopropyl-6-oxo-5,6-dihydro-1,5-naphthyridin-3-yl)methyl)piperazin-1-yl)-N-methylpicolinamide]
